Reference: patent US10696693B2, “Fused imidazole derivatives as TGF-beta inhibitors” (Rigel Pharmaceuticals, Inc., priority 2014, dated 2020)
Read-outs that look alike come from different tables or passages of the source.

Tests used:
[1] = system: GDF8; assay: AlphaScreen SureFire p-SMAD3 (Ser423/425) assay, GDF8-stimulated cells; assay type: cell-based; conditions: Mus musculus
Method in brief: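 A SureFire AlphaScreen assay measured phosphorylation of endogenous SMAD-3 at Ser423/425 in cell lysates. Cells were treated with three-fold serially diluted compounds in DMSO for about 10 minutes, then stimulated with GDF8. After medium removal, cells were lysed in 1× Lysis Buffer (about 25 μL) with gentle shaking for 5-10 minutes.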

[2] = system: TGF-β; assay: AlphaScreen SureFire p-SMAD3 (Ser423/425) assay, TGF-β-stimulated cells; assay type: cell-based; conditions: Mus musculus
Method in brief: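 The p-SMAD-3 (Ser423/425) SureFire assay measured phosphorylation of endogenous SMAD-3 in cell lysates. Cells were plated overnight in collagen-coated plates, exposed to three-fold serially diluted compounds for about 10 minutes, then stimulated with TGFβ. Lysates (5 μL) received acceptor bead mix for 2 hours, then donor beads for 1½ hours before AlphaScreen reading.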

[3] = MPC-11, p-SMAD3 (Ser423/425) AlphaScreen in cell lysate, MPC11, GDF8 stimulation, read-out: GDF8: inhibition of GDF8 signaling, GDF pSMAD (MPC11)
[4] = p-SMAD3 (Ser423/425) AlphaScreen in cell lysate, MPC-11, TGF-β stimulation, read-out: TGF-β: inhibition of TGF-β signaling, TGF-β pSMAD (MPC-11)
[5] = MPC-11, read-out: GDF8: inhibition of GDF8 signaling, GDF pSMAD (MPC11), p-SMAD3 (Ser423/425) AlphaScreen in cell lysate, GDF8 stimulation
[6] = MPC-11, read-out: TGF-β: inhibition of TGF-β signaling, TGF-β pSMAD (MPC-11), p-SMAD3 (Ser423/425) AlphaScreen in cell lysate, TGF-β stimulation

| IC50 [1, 3] [µM] | IC50 [2, 4] [µM] | Compound | IC50 [1, 5] [µM] | IC50 [2, 6] [µM] |
| --- | --- | --- | --- | --- |
| > 1 | > 1 | CC(C)c1nnc2ccc(-c3c(-c4cc(F)c(Cl)cc4F)nc4n3CCC4)cn12 [Compound 20, 6-(2-(4-chloro-2,5-difluorophenyl)-6,7-dihydro-5H-pyrrolo[1,2-a]imidazol-3-yl)-3-isopropyl-[1,2,4]triazolo[4,3-a]pyridine] | – | – |
| > 1 | > 1 | Cc1ccc(-c2nc3occn3c2Br)c(F)c1 [Compound 153, 5-bromo-6-(2-fluoro-4-methylphenyl)imidazo[2,1-b]oxazole] | – | – |
| > 1 | > 1 | Fc1cc(F)c(-c2nc3n(c2-c2ccc4nnc(C(F)(F)F)n4c2)CCC3)cc1F [Compound 34, 3-(trifluoromethyl)-6-(2-(2,4,5-trifluorophenyl)-6,7-dihydro-5H-pyrrolo[1,2-c]imidazol-3-yl)-[1,2,4]triazolo[4,3-c]pyridine] | – | – |
| < 0.05 | < 0.05 | Fc1cc(F)c(-c2nc3n(c2-c2cc4cnccc4s2)CCN3)cc1F [Compound 116, 2-(6-(2,4,5-trifluorophenyl)-2,3-dihydro-1H-imidazo[1,2-a]imidazol-5-yl)thieno[3,2-c]pyridine] | – | – |
| – | – | Cc1c(F)ccc(-c2nc3n(c2-c2ccc4ncnn4c2)CCC3)c1C [Compound 73, 6-(2-(4-fluoro-2,3-dimethylphenyl)-6,7-dihydro-5H-pyrrolo[1,2-a]imidazol-3-yl)-[1,2,4]triazolo[1,5-a]pyridine] | 0.1 to 1 | > 1 |
| 0.1 to 1 | > 1 | Fc1cccc(-c2nc3n(c2-c2ccc4nccn4c2)CCC3)c1 [Compound 7, 6-(2-(3-fluorophenyl)-6,7-dihydro-5H-pyrrolo[1,2-c]imidazol-3-yl)imidazo[1,2-c]pyridine] | – | – |
| – | – | Clc1ccc(Cl)c(-c2nc3n(c2-c2ccc4ncnn4c2)CCC3)c1 [Compound 92, 6-(2-(2,5-dichlorophenyl)-6,7-dihydro-5H-pyrrolo[1,2-a]imidazol-3-yl)-[1,2,4]triazolo[1,5-a]pyridine] | 0.05 to 0.1 | 0.1 to 1 |
| < 0.05 | < 0.05 | Fc1cc(F)c(F)c(-c2nc3n(c2-c2ccc4ncccc4c2)CCN3)c1 [Compound 110, 6-(6-(2,3,5-trifluorophenyl)-2,3-dihydro-1H-imidazo[1,2-a]imidazol-5-yl)quinoline] | – | – |
| – | – | Cc1cc(F)c(Cl)cc1-c1nc2n(c1-c1ccc3ncccc3c1)CCC2 [Compound 299, 6-(2-(5-chloro-4-fluoro-2-methylphenyl)-6,7-dihydro-5H-pyrrolo[1,2-a]imidazol-3-yl)quinoline] | 0.1 to 1 | > 1 |
| – | – | Cc1c(F)ccc(-c2nc3n(c2-c2ccc4[nH]ncc4c2)CCC3)c1Cl [Compound 312, 5-(2-(2-chloro-4-fluoro-3-methylphenyl)-6,7-dihydro-5H-pyrrolo[1,2-a]imidazol-3-yl)-1H-indazole] | > 1 | > 1 |
| < 0.05 | 0.1 to 1 | Fc1cc(F)c(-c2nc3n(c2-c2ccc4ncnn4c2)CCC3)cc1F [Compound 14, 6-(2-(2,4,5-trifluorophenyl)-6,7-dihydro-5H-pyrrolo[1,2-a]imidazol-3-yl)-[1,2,4]triazolo[1,5-a]pyridine] | – | – |
| > 1 | > 1 | O=S(=O)(Nc1cccc(-c2nc3n(c2-c2ccc4nccn4c2)CCC3)c1)c1ccccc1F [Compound 70, 2-fluoro-N-(3-(3-(imidazo[1,2-a]pyridin-6-yl)-6,7-dihydro-5H-pyrrolo[1,2-a]imidazol-2-yl)phenyl)benzenesulfonamide] | – | – |
| 0.05 to 0.1 | 0.1 to 1 | Fc1cc(Cl)c(-c2nc3n(c2-c2ccc4nccn4c2)CCC3)cc1F [Compound 50] | – | – |
| < 0.05 | 0.1 to 1 | Fc1cc(Cl)c(-c2nc3n(c2-c2ccc4ncsc4c2)CCC3)cc1F [Compound 289, 6-(2-(2-chloro-4,5-difluorophenyl)-6,7-dihydro-5H-pyrrolo[1,2-a]imidazol-3-yl)benzo[d]thiazole] | – | – |
